Assay results taken from patent US5444063A, “Enantiomerically pure β-D-dioxolane nucleosides with selective anti-Hepatitis B virus activity” (priority 1992, dated 1995).
Where “and” joins values, the source holds several entries; their conditions need not be identical. Equal values may be shown once. Read-outs that look alike come from different tables or passages of the source.

Assays:
[1] = Toxicity analysis of test compounds in 2.2.15 cells (neutral red dye uptake); type: cell-based; conditions: human
Experimental: Toxicity analyses were performed in order to assess whether any observed antiviral effects are due to a general effect on cell viability. The method used was based on the uptake of neutral red dye, a standard and widely used assay for cell viability in a variety of virus-host systems, including HSV (herpes simplex virus) and HIV. Details of the procedure are provided in the toxicity table legends.
The test compounds were used in the form of 40 mM stock solutions in DMSO (frozen on dry ice). Daily aliquots of the test samples were made and frozen at -20° C. so that each individual aliquot would be subjected to a single freeze-thaw cycle. The daily test aliquots were thawed, suspended into culture medium at room temperature and immediately added to the cell cultures° The compounds were tested at 0.0 and 1 μM for antiviral activity. The compounds were tested for toxicity at concentrations up to 300 μM.
Toxicity analyses were performed in 96-well flat bottomed tissue culture plates. Cells for the toxicity analyses were cultured and treated with test compounds with the same schedule as used for the antiviral evaluations. Each compound was tested at 4 concentrations, each in triplicate cultures. Uptake of neutral red dye was used to determine the relative level of toxicity. The absorbance of internalized dye at […] (A510) was used for the quantitative analysis. Values are presented as a percentage of the average A510 values (±standard deviations) in 9 separate cultures of untreated cells maintained on the same 96-well plate as the test compounds.

[2] = tested on: HBV; experiment: Effect of nucleosides on HBV production in 2.2.15 cells (HBV virion DNA and intracellular HBV DNA); type: cell-based, Hepatitis B virus; conditions: for HBV virion DNA, day 0 / HBV virion DNA, day 3 / HBV virion DNA, day 6 / HBV virion DNA, day 9: individual culture; for HBV virion DNA, day 0, mean / HBV virion DNA, day 3, mean / HBV virion DNA, day 6, mean / HBV virion DNA, day 9, mean / Intracellular HBV DNA on Day 10, Mono, mean / Intracellular HBV DNA on Day 10, RI, mean: mean of 4 cultures; for inhibition at 1 µM / inhibition: Hepatitis B virus
Experimental: The ability of β-D-dioxolane-nucleosides to inhibit HBV can be measured by various experimental techniques. The assay used herein to evaluate the ability of the disclosed compounds to inhibit the replication of HBV is described in detail in Korba and Gerin, Antiviral Res. 19:55-70 (1992). […] The other compounds disclosed herein are evaluated similarly.
The antiviral evaluations were performed on two separate passages of cells, two cultures per passage (4 cultures total). All wells, in all plates, were seeded at the same density and at the same time.
Due to the inherent variations in the levels of both intracellular and extracellular HBV DNA, only depressions greater than 3.0-fold (for HBV virion DNA) or 2.5-fold (for HBV DNA replication intermediates) from the average levels for these HBV DNA forms in untreated cells are generally considered to be statistically significant [P<0.05] (Korba and Gerin, Antiviral Res. 19: 55-70, 1992). The levels of integrated HBV DNA in each cellular DNA preparation (which remain constant on a per cell basis in these experiments) were used to calculate the levels of intracellular HBV DNA forms, thereby eliminating technical variations inherent in the blot hybridization assays.
The test compounds were used in the form of 40 mM stock solutions in DMSO (frozen on dry ice). Daily aliquots of the test samples were made and frozen at -20° C. so that each individual aliquot would be subjected to a single freeze-thaw cycle. […] The compounds were tested for toxicity at concentrations up to 300 μM.

[3] = 0.1 μM, listed as (-)- -2,6-diNH2-purine-dioxolane
[4] = 1.0 μM ("1.0 M" printed for the 2,6-DiNH2 compound), listed as (-)- -2,6-DiNH2-purine-dioxolane
[5] = 1.0 μM ("1.0 M" printed for the 2,6-DiNH2 compound)
[6] = 0 h, 1.0 μM ("1.0 M" printed for the 2,6-DiNH2 compound), read-out: % inhibition, HBV virion DNA, day 0
[7] = 0 h, read-out: % inhibition, HBV virion DNA, day 0
[8] = 72 h, 1.0 μM ("1.0 M" printed for the 2,6-DiNH2 compound), read-out: % inhibition, HBV virion DNA, day 3
[9] = 72 h, read-out: % inhibition, HBV virion DNA, day 3
[10] = 144 h, 1.0 μM ("1.0 M" printed for the 2,6-DiNH2 compound), read-out: % inhibition, HBV virion DNA, day 6
[11] = 144 h, read-out: % inhibition, HBV virion DNA, day 6
[12] = 216 h, 1.0 μM ("1.0 M" printed for the 2,6-DiNH2 compound), read-out: % inhibition, HBV virion DNA, day 9
[13] = 216 h, read-out: % inhibition, HBV virion DNA, day 9
[14] = 240 h, 1.0 μM ("1.0 M" printed for the 2,6-DiNH2 compound), read-out: % inhibition, intracellular HBV DNA Mono, Day 10
[15] = 240 h, 1.0 μM ("1.0 M" printed for the 2,6-DiNH2 compound), read-out: % inhibition, intracellular HBV DNA RI, Day 10
[16] = 240 h, read-out: % inhibition, intracellular HBV DNA Mono, Day 10
[17] = 240 h, read-out: % inhibition, intracellular HBV DNA RI, Day 10
[18] = 0.1 μM, listed as (-)- -2,6-dioxolane-G
[19] = 1.0 μM ("1.0 M" printed for the 2,6-DiNH2 compound), listed as (-)- -2,6-dioxolane-G

Structure (SMILES)	viability at 10 µM [1]	viability at 30 µM [1]	viability at 100 µM [1]	viability at 300 µM [1]	HBV virion DNA, day 0, mean ([2]; 0.1 μM)	HBV virion DNA, day 3, mean ([2]; 0.1 μM)	HBV virion DNA, day 6, mean ([2]; 0.1 μM)	HBV virion DNA, day 9, mean ([2]; 0.1 μM)	Intracellular HBV DNA on Day 10, Mono, mean ([2]; 0.1 μM)	Intracellular HBV DNA on Day 10, RI, mean ([2]; 0.1 μM)	HBV virion DNA, day 0, mean [2, 5]	HBV virion DNA, day 3, mean [2, 5]	HBV virion DNA, day 6, mean [2, 5]	HBV virion DNA, day 9, mean [2, 5]	Intracellular HBV DNA on Day 10, Mono, mean [2, 5]	Intracellular HBV DNA on Day 10, RI, mean [2, 5]	inhibition at 1 µM [2, 6]	inhibition [2, 7]	inhibition at 1 µM [2, 8]	inhibition [2, 9]	further results
Nc1nc(N)c2ncn([C@H]3CO[C@@H](CO)O3)c2n1 [DAPD, (-)-(2R,4R)-2-amino-9-[(2-hydroxymethyl)-1,3-dioxolan-4-yl]adenine]	99 ± 1%	99 ± 3%	88 ± 1%	49 ± 3%	62.75 pg/ml of cultured medium	61.75 pg/ml of cultured medium	30.75 pg/ml of cultured medium	7.00 pg/ml of cultured medium	2.35 pg/μM of cellular DNA	12.00 pg/μM of cellular DNA	67.75 pg/ml of cultured medium	50.75 pg/ml of cultured medium	12.00 pg/ml of cultured medium	0.25 pg/ml of cultured medium	1.15 pg/μM of cellular DNA	2.25 pg/μM of cellular DNA	-7.54%	0.4%	21.6%	4.63%	HBV virion DNA, day 0 ([2]; 0.1 μM): 77 pg/ml of cultured medium; HBV virion DNA, day 0 [2, 3]: 52 pg/ml of cultured medium and 58 pg/ml of cultured medium and 64 pg/ml of cultured medium; HBV virion DNA, day 3 [2, 3]: 67 pg/ml of cultured medium and 59 pg/ml of cultured medium and 62 pg/ml of cultured medium; HBV virion DNA, day 6 [2, 3]: 28 pg/ml of cultured medium and 34 pg/ml of cultured medium and 35 pg/ml of cultured medium and 26 pg/ml of cultured medium; HBV virion DNA, day 9 [2, 3]: 5 pg/ml of cultured medium and 6 pg/ml of cultured medium and 9 pg/ml of cultured medium and 8 pg/ml of cultured medium; HBV virion DNA, day 0 [2, 4]: 66 pg/ml of cultured medium and 70 pg/ml of cultured medium and 74 pg/ml of cultured medium and 61 pg/ml of cultured medium; HBV virion DNA, day 3 [2, 4]: 59 pg/ml of cultured medium and 45 pg/ml of cultured medium and 56 pg/ml of cultured medium and 43 pg/ml of cultured medium; HBV virion DNA, day 6 [2, 4]: 12 pg/ml of cultured medium and 10 pg/ml of cultured medium and 15 pg/ml of cultured medium and 11 pg/ml of cultured medium; HBV virion DNA, day 9 ([2]; 1.0 μM ("1.0 M" printed for the 2,6-DiNH2 compound), zero = undetectable, listed as (-)- -2,6-DiNH2-purine-dioxolane): 0 pg/ml of cultured medium and 1 pg/ml of cultured medium; inhibition at 1 µM [2, 10]: 84.4%; inhibition [2, 11]: 59.9%; inhibition at 1 µM [2, 12]: 99.7%; inhibition [2, 13]: 90.6%; inhibition at 1 µM [2, 14]: 54.5%; inhibition at 1 µM [2, 15]: 96.9%; inhibition [2, 16]: 6.93%; inhibition [2, 17]: 83.7%
Nc1nc2c(ncn2[C@H]2CO[C@@H](CO)O2)c(=O)[nH]1 [Dioxolane-G, (-)-(2R,4R)-9-[(2-hydroxymethyl)-1,3-dioxolan-4-yl]guanine]	100 ± 3%	101 ± 2%	88 ± 3%	56 ± 3%	62.75 pg/ml of cultured medium	68.25 pg/ml of cultured medium	70.25 pg/ml of cultured medium	13.75 pg/ml of cultured medium	2.35 pg/μM of cellular DNA	24.00 pg/μM of cellular DNA	62.25 pg/ml of cultured medium	66.75 pg/ml of cultured medium	22.25 pg/ml of cultured medium	2.75 pg/ml of cultured medium	1.85 pg/μM of cellular DNA	4.75 pg/μM of cellular DNA	1.19%	0.4%	-1.54%	-5.41%	HBV virion DNA, day 0 [2, 18]: 51 pg/ml of cultured medium and 59 pg/ml of cultured medium and 74 pg/ml of cultured medium and 67 pg/ml of cultured medium; HBV virion DNA, day 3 [2, 18]: 77 pg/ml of cultured medium and 62 pg/ml of cultured medium and 73 pg/ml of cultured medium and 61 pg/ml of cultured medium; HBV virion DNA, day 6 [2, 18]: 60 pg/ml of cultured medium and 70 pg/ml of cultured medium and 69 pg/ml of cultured medium and 82 pg/ml of cultured medium; HBV virion DNA, day 9 [2, 18]: 18 pg/ml of cultured medium and 12 pg/ml of cultured medium and 14 pg/ml of cultured medium and 11 pg/ml of cultured medium; HBV virion DNA, day 0 [2, 19]: 70 pg/ml of cultured medium and 50 pg/ml of cultured medium and 56 pg/ml of cultured medium and 73 pg/ml of cultured medium; HBV virion DNA, day 3 [2, 19]: 86 pg/ml of cultured medium and 59 pg/ml of cultured medium and 56 pg/ml of cultured medium and 62 pg/ml of cultured medium; HBV virion DNA, day 6 [2, 19]: 22 pg/ml of cultured medium and 24 pg/ml of cultured medium and 23 pg/ml of cultured medium and 20 pg/ml of cultured medium; HBV virion DNA, day 9 ([2]; 1.0 μM ("1.0 M" printed for the 2,6-DiNH2 compound), zero = undetectable, listed as (-)- -2,6-dioxolane-G): 2 pg/ml of cultured medium and 4 pg/ml of cultured medium and 3 pg/ml of cultured medium; inhibition at 1 µM [2, 10]: 71%; inhibition [2, 11]: 8.47%; inhibition at 1 µM [2, 12]: 96.3%; inhibition [2, 13]: 81.5%; inhibition at 1 µM [2, 14]: 26.7%; inhibition at 1 µM [2, 15]: 93.5%; inhibition [2, 16]: 6.93%; inhibition [2, 17]: 67.3%
